Common to all, as to type: cell-based
Experiment [1] deals with E. coli (8099). Nature of the experiment: minimum inhibitory / bactericidal concentration for E. coli.
In experiment [2] the test system is S. aureas (ATCC6538). The experiment can be described thus: minimum inhibitory / bactericidal concentration for S. aureas.
The subject of experiment [3] is E. coli. The experiment can be described thus: persistent antimicrobial activity of treated glass surface, colony (plate) counting method, E. coli. As for the experimental part: (§1) The resulting products from the above examples were used for treating a glass surface respectively, a superhydrophilic surface at a contact angle of less than 10° […]. was all obtained. In addition, they were tested for antimicrobial activity and persistent antimicrobial activity using the colony counting method, and the results are shown in table 1.

The subject of experiment [4] is S. aureas. Nature of the experiment: persistent antimicrobial activity of treated glass surface, colony (plate) counting method, S. aureas. On the set-up: concentration or dose not given beside the values. As for the experimental part: as §1

In brackets after ≈: the same amount, converted by molar mass.

For `CCO[Si](CCC[N+](C)(C)CCCS(=O)(=O)[O-])(OCC)OCC` [Embodiment 1, (CH3CH2O)3Si(CH2)3^+N(CH3)2(CH2)3SO3^−], the “minimum bactericidal concentration (MBC)” value in experiment [1] and in experiment [2] was 20 mg/mL (≈ 53.8 mM) each time. Moreover, the “minimum inhibitory concentration (MIC)” value in experiment [1] and in experiment [2] was 15 mg/mL (≈ 40.4 mM) in each case. Further, the “persistent antimicrobial activity (plate counting method)” value (shortened to “persistent antimicrobial activity”) in experiment [3] (wash times 0) was found to be 99.9%; in experiment [3] (wash times 1), 99.8%; in experiment [3] (wash times 5), 99.5%; in experiment [3] (wash times 10), 99.0%; in experiment [3] (wash times 30), 99.2%; in experiment [4] (wash times 0) it was 99.9%. Further, the “persistent antimicrobial activity” value in experiment [4] (wash times 1) turned out to be 99.9%; in experiment [4] (wash times 5), 99.6%; in experiment [4] (wash times 10), 99.5%; in experiment [4] (wash times 30) it was 99.0%.

On to `CCO[Si](C)(CCC[N+](C)(C)CC(=O)[O-])OCC` [Embodiment 3, (CH3CH2O)2SiCH3(CH2)3^+N(CH3)2CH2CO2^−], for which the “minimum bactericidal concentration (MBC)” value in experiment [1] and in experiment [2] was 25 mg/mL (≈ 90.1 mM) in each case. Further, the “minimum inhibitory concentration (MIC)” value in experiment [1] and in experiment [2] was 20 mg/mL (≈ 72.1 mM) throughout. The “persistent antimicrobial activity” value in experiment [3] (wash times 0) is on record as 99.9%; in experiment [3] (wash times 1), 99.8%; in experiment [3] (wash times 5) it was 99.2%; in experiment [3] (wash times 10) it was 97.9%; in experiment [3] (wash times 30) it was 97.2%; in experiment [4] (wash times 0), 99.9%. Also, the “persistent antimicrobial activity” value is 99.9% in experiment [4] (wash times 1), 99.5% in experiment [4] (wash times 5), 98.2% in experiment [4] (wash times 10) and 97.6% in experiment [4] (wash times 30).

With `CCO[Si](C)(CCC[N+](C)(C)CCC(=O)[O-])OCC` [Embodiment 4, (CH3CH2O)2SiCH3(CH2)3^+N(CH3)2(CH2)2CO2^−], the “minimum bactericidal concentration (MBC)” value in experiment [1] and in experiment [2] was 20 mg/mL (≈ 68.6 mM) in each case. The “minimum inhibitory concentration (MIC)” value in experiment [1] and in experiment [2] was 10 mg/mL (≈ 34.3 mM) in each case. Besides, the “persistent antimicrobial activity” value in experiment [3] (wash times 0) came out at 99.9%; in experiment [3] (wash times 1), 99.8%; in experiment [3] (wash times 5), 99.0%; in experiment [3] (wash times 10), 98.6%; in experiment [3] (wash times 30) it was 98.1%; in experiment [4] (wash times 0), 99.9%. Also, the “persistent antimicrobial activity” value in experiment [4] (wash times 1) turned out to be 99.9%; in experiment [4] (wash times 5), 99.6%; in experiment [4] (wash times 10), 98.9%; in experiment [4] (wash times 30), 98.3%.

As to `CC[N+](CC)(CCC[Si](OC)(OC)OC)CCCS(=O)(=O)[O-]` [Embodiment 5, (CH3O)3Si(CH2)3^+N(CH2CH3)2(CH2)3SO3^−], the “minimum bactericidal concentration (MBC)” value in experiment [1] and in experiment [2] was 20 mg/mL (≈ 55.9 mM) in each case. Further, the “minimum inhibitory concentration (MIC)” value in experiment [1] and in experiment [2] was 15 mg/mL (≈ 42 mM) in each case. Further, the “persistent antimicrobial activity” value came out at 99.9% in experiment [3] (wash times 0); 99.7% in experiment [3] (wash times 1); 99.0% in experiment [3] (wash times 5); 98.7% in experiment [3] (wash times 10); 98.0% in experiment [3] (wash times 30); 99.9% in experiment [4] (wash times 0). Also, the “persistent antimicrobial activity” value in experiment [4] (wash times 1) turned out to be 99.9%; in experiment [4] (wash times 5) it was 99.5%; in experiment [4] (wash times 10), 98.8%; in experiment [4] (wash times 30), 98.2%.

Consider `CC[N+](CC)(CCC[Si](OC)(OC)OC)CCS(=O)(=O)[O-]` [Embodiment 6, (CH3O)3Si(CH2)3^+N(CH2CH3)2(CH2)2SO3^−], for which the “minimum bactericidal concentration (MBC)” value in experiment [1] and in experiment [2] was 25 mg/mL (≈ 72.8 mM) each time. For the same compound, the “minimum inhibitory concentration (MIC)” value in experiment [1] and in experiment [2] was 20 mg/mL (≈ 58.2 mM) throughout. Besides, the “persistent antimicrobial activity” value in experiment [3] (wash times 0) is given as 99.9%; in experiment [3] (wash times 1) it was 99.8%; in experiment [3] (wash times 5), 99.3%; in experiment [3] (wash times 10) it was 97.9%; in experiment [3] (wash times 30) it was 97.2%; in experiment [4] (wash times 0), 99.9%. Besides, the “persistent antimicrobial activity” value is 99.9% in experiment [4] (wash times 1), 99.5% in experiment [4] (wash times 5), 98.2% in experiment [4] (wash times 10) and 97.6% in experiment [4] (wash times 30).

Take `CO[Si](CCCNCCNCCCS(=O)(=O)O)(OC)OC` [Embodiment 7, (CH3O)3Si(CH2)3NH(CH2)2^+NH2(CH2)3SO3^−]: the “minimum bactericidal concentration (MBC)” value in experiment [1] and in experiment [2] was 30 mg/mL (≈ 87.1 mM) throughout. Also, the “minimum inhibitory concentration (MIC)” value in experiment [1] and in experiment [2] was 25 mg/mL (≈ 72.6 mM) each time. The “persistent antimicrobial activity” value in experiment [3] (wash times 0) amounted to 99.9%; in experiment [3] (wash times 1), 99.5%; in experiment [3] (wash times 5) it was 99.1%; in experiment [3] (wash times 10), 98.6%; in experiment [3] (wash times 30), 98.0%; in experiment [4] (wash times 0), 99.9%. In addition, the “persistent antimicrobial activity” value amounted to 99.8% in experiment [4] (wash times 1), 99.6% in experiment [4] (wash times 5), 99.1% in experiment [4] (wash times 10) and 98.2% in experiment [4] (wash times 30).

As to `CCC[N+](CCC)(CCC[Si](OC)(OC)OC)CCCS(=O)(=O)[O-]` [Embodiment 8, (CH3O)3Si(CH2)3^+N(CH2CH2CH3)2(CH2)3SO3^−], the “minimum bactericidal concentration (MBC)” value in experiment [1] and in experiment [2] was 20 mg/mL (≈ 51.9 mM) in each case. The “minimum inhibitory concentration (MIC)” value in experiment [1] and in experiment [2] was 15 mg/mL (≈ 38.9 mM) throughout. For the same compound, the “persistent antimicrobial activity” value in experiment [3] (wash times 0) is given as 99.9%; in experiment [3] (wash times 1), 99.7%; in experiment [3] (wash times 5), 99.3%; in experiment [3] (wash times 10), 98.7%; in experiment [3] (wash times 30), 98.2%; in experiment [4] (wash times 0), 99.9%. Besides, the “persistent antimicrobial activity” value is given as 99.9% in experiment [4] (wash times 1), 99.5% in experiment [4] (wash times 5), 98.8% in experiment [4] (wash times 10) and 98.5% in experiment [4] (wash times 30).

With “(CH3CH2O)2SiCH3(CH2CH3)3^+N(CH3)2(CH2)3SO3^− [Embodiment 2]”, the “minimum bactericidal concentration (MBC)” value in experiment [1] and in experiment [2] was 30 mg/mL throughout. In addition, the “minimum inhibitory concentration (MIC)” value in experiment [1] and in experiment [2] was 25 mg/mL in each case. The “persistent antimicrobial activity” value is 99.9% in experiment [3] (wash times 0); 99.9% in experiment [3] (wash times 1); 99.3% in experiment [3] (wash times 5); 98.9% in experiment [3] (wash times 10); 98.5% in experiment [3] (wash times 30); 99.9% in experiment [4] (wash times 0). Further, the “persistent antimicrobial activity” value is listed as 99.9% in experiment [4] (wash times 1), 99.9% in experiment [4] (wash times 5), 99.6% in experiment [4] (wash times 10) and 99.0% in experiment [4] (wash times 30).

Values taken from patent US8623843B2, “Antimicrobial compound and preparation thereof” (Shenzhen University, priority 2009, dated 2014).
